We go through 5 compounds from patent US20040259082A1.

Data set [1] in a line: Capillary electrophoresis of unlabeled nucleotides with Mg++. The data set is classed as physicochemical. Here is the method:
FIG. 14 illustrates the effect of Mg^++ on electrophoretic mobility of unlabeled nucleotides.
Electrophoresis Results. A γ-dNTP (FIG. 13A) with the charge configuration N(0) F(+2) was synthesized and its electrophoretic mobility examined in an agarose gel as a function of Mg^++ concentration (FIG. 13B). As expected (FIG. 12B), its mobility changed from negative to positive with increasing Mg^++, passing through zero at about 3 mM Mg^++. A direct comparison with the calculation (FIG. 12B) is not possible because, while the gels contained the indicated Mg^++ concentrations, the samples (20 μL) loaded in each lane contained 10 mM Mg^++. The importance of attaching a (+2) charge to the γ-label (FIG. 13A) with respect to obtaining a bipolar switch mode (neg to pos) is illustrated by a capillary electrophoresis experiment with unlabeled dTDP and dTTP (FIG. 14). […] It is clear that additional positive charge can be added to the these nucleotides if one desires a negative to positive charge switch. This is what was done with the γ-dNTP of FIG. 13.

In another data set the target is T1, T7 polymerase exo- (Escherichia phage T7, UniProt P00581, D5A/E7A).
T1 construct: made in house; host or cells: E. coli TOP 10
Nature of the data set: Steady-state kinetics, Km determination for dTTP. Conditions: Lineweaver-Burk plot; 5 sec at 20° C. The format is biochemical.

A further data set has as its target HIV-RT (Human immunodeficiency virus type 1 group M subtype B, UniProt P03366). In words: Charged nucleobase (aminoallyl-dUTP) as polymerase substrate. The data set is classed as biochemical. Conditions: dATP, dCTP, dGTP plus AA-dUTP. The protocol:
(§1) Arrows indicate the extension products.
(§2) Charged Nucleobase as a Polymerase Substrate. […] Aminoallyl-dUTP was tested with 4 different polymerases.

In another data set the target is Klenow (Escherichia coli, UniProt P00582). The data set is described as above. Conditions: dATP, dCTP, dGTP plus AA-dUTP. The format is biochemical. The protocol: as §1, §2
The next data set concerns the target Taq (Thermus aquaticus, UniProt P19821). Described as above. The format is biochemical. Particulars: dATP, dCTP, dGTP plus AA-dUTP. The protocol:
as §1, §2

For another data set, the target named is T7 Sequenase 2.0 (Escherichia phage T7, UniProt P00581, DEL118-145). Conditions: dATP, dCTP, dGTP plus AA-dUTP.
The target of another data set is HIV-1 RT (Human immunodeficiency virus type 1 group M subtype B, UniProt P03366). Conditions: 50 μM dATP, dCTP, dGTP; 37° C. for 30 min.
A short description of data set [2]: Photodegradation and single molecule detection calculation. Conditions: 60 photons, 0.45% detection efficiency, 13,333 excitations.

Sequence of Taq (P19821 whole entry): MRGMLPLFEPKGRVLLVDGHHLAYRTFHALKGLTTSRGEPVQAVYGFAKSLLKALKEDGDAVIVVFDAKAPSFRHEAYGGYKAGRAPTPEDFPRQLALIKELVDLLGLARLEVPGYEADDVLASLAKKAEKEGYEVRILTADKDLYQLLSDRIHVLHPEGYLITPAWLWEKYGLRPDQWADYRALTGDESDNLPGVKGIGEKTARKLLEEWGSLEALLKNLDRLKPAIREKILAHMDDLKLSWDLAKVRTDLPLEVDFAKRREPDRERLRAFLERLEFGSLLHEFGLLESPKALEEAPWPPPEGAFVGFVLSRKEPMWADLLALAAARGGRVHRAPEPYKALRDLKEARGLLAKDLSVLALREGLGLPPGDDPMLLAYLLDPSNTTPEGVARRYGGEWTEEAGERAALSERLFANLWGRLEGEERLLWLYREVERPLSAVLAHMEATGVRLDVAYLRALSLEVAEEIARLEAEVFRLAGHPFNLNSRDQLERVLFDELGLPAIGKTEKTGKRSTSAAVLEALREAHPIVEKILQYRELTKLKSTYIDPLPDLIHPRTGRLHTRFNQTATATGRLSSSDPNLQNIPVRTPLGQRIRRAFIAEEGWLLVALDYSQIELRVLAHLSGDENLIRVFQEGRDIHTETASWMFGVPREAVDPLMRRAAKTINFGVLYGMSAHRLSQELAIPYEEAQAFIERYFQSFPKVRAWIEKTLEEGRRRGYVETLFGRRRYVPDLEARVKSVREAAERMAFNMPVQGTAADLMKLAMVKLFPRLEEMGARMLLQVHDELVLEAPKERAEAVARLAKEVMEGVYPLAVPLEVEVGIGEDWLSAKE
Experimental for HIV-1 RT: FIG. 6 illustrates the utilization of different γ-dNTPs by T7 Sequenase 2.0 and HIV polymerases. Samples contain 50 μM dATP, dCTP, dGTP and either (a) dUTP; (b) γ-dUTP-BodipyTR; (c) γ-dUTP-Fluorescein; or a control (d) omitting dUTP and its analogs. Incubation was at 37° C. for 30 min.
18 commercially-available polymerases were screened for the utilization of γ-dUTP-BodipyTR.
Text for T7 Sequenase 2.0: Samples contain dATP, dCTP, dGTP and either dUTP (first lane of each enzyme) or AA-dUTP (second lane each enzyme). Arrows indicate the extension products.

Regarding `Cc1cn([C@H]2C[C@H](O)[C@@H](COP(=O)(O)OP(=O)(O)O)O2)c(=O)[nH]c1=O` [dTDP], the “charge in presence of Mg++” value in data set [1] is “remained in negative territory”.

As a reminder, the Km is the concentration of substrate that gives half-maximal velocity. Take `Cc1cn([C@H]2C[C@H](O)[C@@H](COP(=O)(O)OP(=O)(O)OP(=O)(O)O)O2)c(=O)[nH]c1=O` [dTTP]: the Km at T7 polymerase exo- is 13 µM. Moreover, the “charge in presence of Mg++” value in data set [1] is recorded as “remained in negative territory”.

On to `NC/C=C/c1cn([C@H]2C[C@H](O)[C@@H](COP(=O)(O)OP(=O)(O)OP(=O)(O)O)O2)c(=O)[nH]c1=O` [Aminoallyl-dUTP], for which the “extension product with AA-dUTP” value is given as “produced full-length product” at HIV-RT, “stopped at the dUTP incorporation sites” on Klenow, “stopped at the dUTP incorporation sites” at Taq and “produced full-length product” at T7 Sequenase 2.0.

For `O=c1ccn([C@H]2C[C@H](O)[C@@H](COP(=O)(O)OP(=O)(O)OP(=O)(O)O)O2)c(=O)[nH]1` [dUTP], the “incorporation of γ-dUTP analogs / dUTP (FIG. 6)” value at HIV-1 RT is listed as “synthesized full-length product”.

For `CN(C)c1ccc2c(-c3ccccc3C(=O)[O-])c3ccc(N(C)C)cc3[o+]c2c1` [TMR, tetramethylrhodamine], in data set [2], the “molecules escaping detection due to photodegradation” value is reported as 0.44%.
